Measurements taken from patent publication US20260152794A1, “EFFICACY OF CHRONIC PELVIC PAIN TREATMENT” (THE UNIVERSITY COURT OF THE UNIVERSITY OF EDINBURGH, priority 2022, published 2026).

What was measured:
[1] = system: women with chronic pelvic pain; assay: Mechanistic fMRI study: brain response to abdominal punctate stimuli before and after 12 weeks of treatment; assay type: in vivo, human; conditions: rs4442490 TT responders (n = 2) compared with TG/GG non-responders (n = 5); brain regions of Table 4
Text: Within the sample taking part in the gabapentin RCT, a small number also took part in a mechanistic fMRI study, undergoing MRI brain scans before and after 12 weeks of treatment. […] Punctate task fMRI pre-processing is described in the supplementary materials. For those for whom both genetic and imaging data was available, the gabapentin pre- and post-treatment scans were compared. The first-level contrast of post-treatment>pre-treatment punctate vs rest was taken into a random effects analysis comparing SNP variants, with clusters achieving a whole-brain, FWE-corrected significance of p<0.05 being reported.

[2] = system: women with chronic pelvic pain; assay: GaPP2 trial secondary analysis: gabapentin analgesic (pain) response, worst and average pain on numerical rating scale; assay type: in vivo, human; conditions: for Average pain (NRS), End of study: mean; for Average pain (NRS), End of study / Worst pain (NRS), End of study: numerical rating scale 1-10; for Worst pain (NRS), End of study: median
Text: (§1) This study is a planned secondary analysis of the GaPP2 trial, a UK-based multicentre, randomised, placebo-controlled trial of gabapentin versus placebo in women with chronic pelvic pain. Trial protocol including ethical approval and exclusion and inclusion criteria are published in full elsewhere. (17) All participants were women aged 18-50 years of age, were using or willing to use contraception to avoid pregnancy and had no obvious pelvic pathology at laparoscopy which must have taken place at least 2 weeks and less than 36 months prior to consent. Participants were randomly assigned to gabapentin (titrated to maximum dose 2700 mg daily) or placebo for 16 weeks. At inclusion to the trial, participants were asked to provide a saliva sample for inclusion in this study.
Cases were categorised into two phenotypes assessing the analgesic response to gabapentin and the degree of intolerance (side-effect burden). Gabapentin analgesic response was defined categorically using the coprimary outcomes of the GaPP2 trial: worst and average pain. Gabapentin ‘responders’ were defined as having reported a ≥30% reduction in worst and/or average pain scores on a numerical rating scale (1-10) after 12 weeks of gabapentin exposure. Gabapentin intolerance was also categorised categorically using a cut-off of ≥3 side-effects reported during the study period. Cases were categorised into ≥3 side-effects and <3 side-effects.

[3] = system: women with chronic pelvic pain; conditions: embedded mechanistic study of GaPP2 (reference 8); cited from earlier work
[4] = system: women with chronic pelvic pain; conditions: GaPP2 trial, women with CPP (reference 7); cited from earlier work
[5] = system: women with chronic pelvic pain; assay: GaPP2 trial secondary analysis: gabapentin intolerance (side-effect burden); assay type: in vivo, human; conditions: side-effects reported during the study period; genotyped participants
Text: as §1
Cases were categorised into two phenotypes assessing the analgesic response to gabapentin and the degree of intolerance (side-effect burden). Gabapentin analgesic response was defined categorically using the coprimary outcomes of the GaPP2 trial: worst and average pain. Gabapentin ‘responders’ were defined as having reported a ≥30% reduction in worst and/or average pain scores on a numerical rating scale (1-10) after 12 weeks of gabapentin exposure. Gabapentin intolerance was also categorised categorically using a cut-off of ≥3 side-effects reported during the study period. […]

[6] = system: women with chronic pelvic pain; conditions: GaPP2 trial, women with CPP (reference 7); cited from earlier work; remark: listed apart in the source
[7] = Pain non-responder group (n = 46)
[8] = after 12 weeks of gabapentin exposure, genotyped participants

NCC1(CC(=O)O)CCCCC1 [gabapentin]
fMRI punctate activation after treatment versus before [1]: decrease in punctate activation | Average pain (NRS), End of study [2, 7]: 5.8 | Worst pain (NRS), End of study [2, 7]: 9 | Average pain (NRS), End of study ([2]; Pain responder group (n = 31), gabapentin titrated to maximum 2700 mg daily): 2.5 | Worst pain (NRS), End of study ([2]; Pain responder group (n = 31)): 6 | number of pain non-responders [2, 8]: (n = 46) | number of pain responders (≥30% reduction in worst and/or average pain scores) [2, 8]: (n = 31) | average reduction in average pain ([2]; subjects in the gabapentin pain responder group): 47% | effect on brain region in response to abdominal punctate stimuli (functional MRI) [3]: appeared to exert an effect on the anterior cingulate cortex | improvement of worst or average pain scores versus placebo [4]: not superior to placebo | number of participants with <3 side-effects [5]: <3 side-effects (n = 23) | number of participants with ≥3 side-effects [5]: ≥3 side-effects (n = 53) | side-effects versus placebo [6]: associated with more side-effects
